In brackets after ≈: the same amount, converted by molar mass.

The target of series [1] is Escherichia coli UDP-2,3-diacylglucosamine hydrolase (LpxH) (Escherichia coli (strain K12), UniProt P43341). Kind of series: Enzymatic IC50 assay of Escherichia coli LpxH (UMP/CMP-Glo luminescence). The note with it: Enzymatic IC50 against Escherichia coli LpxH; read-out: IC50 (converted). In kind it is biochemical. On the procedure:
The inhibitory potency of compounds of Escherichia coli UDP-2,3-diacylglucosamine hydrolase (LpxH) was determined in an enzymatic assay. UDP-2,3-diacylglucosamine (UDP-DAG) was purified from the Caulobacter crescentus LpxI D225A mutant protein that contained a tightly bound UDP-DAG molecule. The enzyme was diluted using assay buffer containing 50 mM NaCl, 20 mM Tris-HCl pH7.5, 2.5 mM MnCl2, 0.01% Triton X-100.1 mg/mL BSA, and the final concentration is 2 nM. The compounds were diluted by Agilent liquid handler Bravo, the compound's serial dilution dose ranges from 100 μM to 1.7 nM. Then the enzyme and compounds mixture were incubated at room temperature for 10 mins. The enzymatic assay was started by adding UDP-DAG (FAC is 5 μM) and incubated for 20 mins at room temperature. The plate was then heated to 95° C. for 15 mins on a water batch to stop the reaction. The hydrolysis of UDP-DAG by LpxH yielded 2,3-diacylglucosamine 1-phosphate (lipid X) and UMP, which was converted to ATP and quantified by the luciferase reaction using the UMP/CMP-Glo™ Glycosyltransferase Assay kit from Promega. The compound's inhibitory effect of LpxH is determined by measuring the light change using a luminometer (Envision).

The test system of series [2] is Escherichia coli BW 25113. As to the kind of experiment: Minimal Inhibitory Concentration (MIC) broth dilution assay, E. coli BW 25113. The note with it: Escherichia coli, BW25113, 20 hours at 35° C., CAMHB, read-out: MIC E. coli K-12 BW 25113. The format is cell-based. Summed up:
(§1)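 Broth microdilution with twofold compound series in cation-adjusted Mueller Hinton broth, inoculum 5×10^5 CFU/mL, applied to each strain. Plates incubated 20 h at 35 °C in ambient air. MIC […] recorded as the lowest concentration with no visible growth, read by eye.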
For orientation: Broth dilution looks for growth in wells or tubes with falling amounts of substance.

The test system of series [3] is Escherichia coli ATCC 25922. Kind of series: Minimal Inhibitory Concentration (MIC) broth dilution assay, E. coli ATCC 25922. The format is cell-based. Particulars: Escherichia coli, ATCC25922, 20 h, read-out: MIC E. coli ATCC 25922. The gist of the method: as §1
The subject of series [4] is Klebsiella pneumonia ATCC 43816. Kind of series: Minimal Inhibitory Concentration (MIC) broth dilution assay, K. pneumonia ATCC 43816. Particulars: Klebsiella pneumoniae, ATCC43816, 20 hours at 35° C., CAMHB, read-out: MIC K. p ATCC 43816. In kind it is cell-based. The gist of the method:
as §1

Series [5] can be described thus: Human microsome stability assay. Particulars: human liver microsomes 0.5 mg/mL, 37° C., pH 7.4, NADPH regenerating system. In kind it is in vitro ADME. The gist of the method: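 Compound […] with 0.5 mg/mL human liver microsomal protein in 100 mM potassium phosphate pH 7.4, 10 min preincubation at 37 °C, started with NADPH regenerating system. Sampled 0–30 min, remaining compound by LC-MS/MS; clearance binned low <7, medium 7–16.2, high >16.2 mL/min/kg.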
On the technique in general: Liver microsomes are vesicles of endoplasmic reticulum, rich in cytochrome P450 enzymes.

Escherichia coli UDP-2,3-diacylglucosamine hydrolase (LpxH), sequence (P43341 whole entry): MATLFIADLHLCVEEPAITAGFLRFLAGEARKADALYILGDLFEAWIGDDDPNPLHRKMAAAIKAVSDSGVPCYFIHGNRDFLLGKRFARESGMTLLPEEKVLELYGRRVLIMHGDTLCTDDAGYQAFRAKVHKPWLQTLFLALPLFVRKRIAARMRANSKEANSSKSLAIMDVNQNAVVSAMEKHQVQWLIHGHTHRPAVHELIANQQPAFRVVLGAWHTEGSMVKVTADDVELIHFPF

In general, IC50 refers to the concentration that inhibits the measured activity by half. As usually defined, the MIC is the lowest concentration found to suppress growth. Turning to `CC(CN)NC(=O)[C@H]1CC[C@H](C(F)(F)c2cc(Cl)nc(N3CCN(S(=O)(=O)c4ccc(N5C[C@H](N)CC5=O)cc4)CC3)c2)CC1` (stereo partly drawn) [Example 008, Trans-N-(2-amino-1-methyl-ethyl)-4-[[2-chloro-6-[4-[4-[(4R)-4-amino-2-oxo-pyrrolidin-1-yl]phenyl]sulfonylpiperazin-1-yl]-4-pyridyl]-difluoro-methyl]cyclohexanecarboxamide], the IC50 in series [1] was 5.99 nM. Further, the minimal inhibitory concentration (MIC) was 1 µg/mL (≈ 1.5 µM) in series [2], 0.52 µg/mL (≈ 0.778 µM) in series [3] and 0.52 µg/mL (≈ 0.778 µM) in series [4]. For the same compound, in series [5], the “Clearance of Human microsome” value is listed as 8.07 mL/min/kg.

`N[C@@H]1CC(=O)N(c2ccc(S(=O)(=O)N3CCN(c4cc(C(F)(F)[C@H]5CC[C@H](C(=O)NCCN6CCCC6)CC5)cc(Cl)n4)CC3)cc2)C1` [Example 009, Trans-4-[[2-chloro-6-[4-[4-[(4R)-4-amino-2-oxo-pyrrolidin-1-yl]phenyl]sulfonylpiperazin-1-yl]-4-pyridyl]-difluoro-methyl]-N-(2-pyrrolidin-1-ylethyl)cyclohexanecarboxamide]: in series [1], the IC50 was less than 2.82 nM. Also, the MIC in series [2], in series [3] and in series [4] was 1.5 µg/mL (≈ 2.12 µM) throughout. Besides, the “Clearance of Human microsome” value in series [5] is 11.13 mL/min/kg.

Take `NCC1(NC(=O)[C@H]2CC[C@H](C(F)(F)c3cc(Cl)nc(N4CCN(S(=O)(=O)c5ccc(N6C[C@H](N)CC6=O)cc5)CC4)c3)CC2)CC1` [Example 012, Trans-N-[1-(aminomethyl)cyclopropyl]-4-[[2-[4-[4-[(4R)-4-amino-2-oxo-pyrrolidin-1-yl]phenyl]sulfonylpiperazin-1-yl]-6-chloro-4-pyridyl]-difluoro-methyl]cyclohexanecarboxamide]: the half-inhibitory concentration (IC50) in series [1] was 2.94 nM. The MIC in series [2], in series [3] and in series [4] was 0.57 µg/mL (≈ 0.838 µM) in each case. Besides, the “Clearance of Human microsome” value in series [5] is recorded as 6.19 mL/min/kg.

With `NCCN1CCN(C(=O)[C@H]2CC[C@H](C(F)(F)c3cc(Cl)nc(N4CCN(S(=O)(=O)c5ccc(N6C[C@H](N)CC6=O)cc5)CC4)c3)CC2)CC1` [Example 013, Trans-(4R)-4-amino-1-[4-[4-[4-[[4-[4-(2-aminoethyl)piperazine-1-carbonyl]cyclohexyl]-difluoro-methyl]-6-chloro-2-pyridyl]piperazin-1-yl]sulfonylphenyl]pyrrolidin-2-one], in series [1], the half-maximal inhibitory concentration (IC50) is 4.15 nM. Moreover, the figures for the MIC in series [2], in series [3] and in series [4] were 2.6 µg/mL (≈ 3.59 µM), 2.6 µg/mL (≈ 3.59 µM) and 1.3 µg/mL (≈ 1.8 µM), respectively. Further, the “Clearance of Human microsome” value in series [5] was determined as 6.77 mL/min/kg.

Regarding `NC(=O)[C@H]1CC[C@H](C(F)(F)c2cc(Cl)nc(N3CCN(S(=O)(=O)c4ccc(N5C[C@H](N)CC5=O)cc4)CC3)c2)CC1` [Example 014], the IC50 in series [1] is less than 3.27 nM. The MIC in series [2], in series [3] and in series [4] was 1.1 µg/mL (≈ 1.8 µM) in each case. In addition, the “Clearance of Human microsome” value in series [5] is reported as 6.15 mL/min/kg.

For the compound `CN(C)CCCNC(=O)c1ccc(C(F)(F)c2cc(Cl)nc(N3CCN(S(=O)(=O)c4ccc(N5C[C@H](N)CC5=O)cc4)CC3)c2)cc1` [Example 020, 4-[[2-chloro-6-[4-[4-[(4R)-4-amino-2-oxo-pyrrolidin-1-yl]phenyl]sulfonylpiperazin-1-yl]-4-pyridyl]-difluoro-methyl]-N-[3-(dimethylamino)propyl]benzamide], the IC50 in series [1] was 2.9 nM. In addition, the MIC in series [2], in series [3] and in series [4] was 0.72 µg/mL (≈ 1.04 µM) in each case. Also, the “Clearance of Human microsome” value in series [5] was 9.48 mL/min/kg.

For `NCCCNC(=O)c1cnc(C(F)(F)c2cc(Cl)nc(N3CCN(S(=O)(=O)c4ccc(N5C[C@H](N)CC5=O)cc4)CC3)c2)cn1` [Example 021, N-(3-aminopropyl)-5-[[2-chloro-6-[4-[4-[(4R)-4-amino-2-oxo-pyrrolidin-1-yl]phenyl]sulfonylpiperazin-1-yl]-4-pyridyl]-difluoro-methyl]pyrazine-2-carboxamide], the IC50 in series [1] is 3.01 nM. Moreover, the MIC in series [2] came to 2.2 µg/mL (≈ 3.31 µM); in series [3], 1.3 µg/mL (≈ 1.96 µM); in series [4] it was 1.8 µg/mL (≈ 2.71 µM). Further, in series [5], the “Clearance of Human microsome” value amounted to 10.85 mL/min/kg.

(Values after patent publication US20240417387A1, “SULFONYLPIPERAZINYL COMPOUNDS FOR TREATMENT OF BACTERIAL INFECTIONS” (Hoffmann-La Roche Inc., priority 2021, published 2024).)
